This note sets out measurements from US6872727B1, “Polycyclic pyrimidine -2,4(1H,3H)-diones with functionalized alkyl residues at the 1- and/or 3-position(s); methods for their synthesis and pharmaceutical preparation” (Privates Institut fur Biomedizinische Forschung und Beratung, priority 1999, dated 2005).

The Ki is the dissociation constant of the complex between target and ligand, obtained from inhibition or displacement.

Holding throughout (format): biochemical
Experiment [1] concerns the target T1, human matrix metalloproteinase-9 (MMP-9; gelatinase B) (Homo sapiens, UniProt P14780).
T1 construct: from tissue; host or cells: human buffy coat (blood leukocytes)
The experiment is described as follows: Inhibition of human matrix metalloproteinase-9 (gelatinase B). To be noted: trypsin-activated native MMP-9 from human buffy coat; read-out: MMP-9 (50% inhibition). The method, then: Native MMP-9 was reproducibly obtained with reasonable yield and purity from human buffy coat. Buffy coat, to which was added an appropriate volume of 10% (v/v) Triton-X-100 to obtain a final concentration of 0,4% detergent, was shaken on ice for 30 min; then, one volume of twofold-concentrated binding buffer (40 mM Tris-HCl pH 7,5, 10 mM CaCl2, 1 M NaCl, 0,2% (v/v) Triton X-100 was added and the mixture shaken on ice for a further 30 min.
The mixture was then centrifuged for 15 min at 16,000 rpm (30,590×g) in a Kendro SS-34 rotor at 4° C. and the resulting supernatant filtered over glass wool. The filtrate was incubated batchwise with gelatin-agarose equilibrated in binding buffer for 1 h on ice with continuous shaking The MMP-9-bound gelatin-agarose was then loaded into a chromatographic tube and the column washed with at least ten bed volumes of binding buffer, or until no protein was detected by absorbance at 280 nm in the wash buffer. MMP-9 was eluted from the gelatin affinity column by application of two bed volumes of binding buffer containing 5% (v/v) dimethylsulfoxide (DMSO).
The eluate was applied to a gel filtration column of Sephadex G-75 both to exchange buffer and to eliminate small amounts of contaminating MMP-2. The G-75 column was prepared and eluted with Buffer I [20 mM Tris-HCl pH 7,5, 5 mM CaCl2, 100 mM NaCl, 0,1% (v/v) Triton X-100].
The eluted MMP-9 includes the three characterized forms of the enzyme: monomer, homodimer, and heterodimer (complex with lipokalin). The purity of MMP-9 was estimated to be ca. 90%, with the remaining contaminating protein being fibronectin and small amounts of TIMPS.
The latent MMP-9 was activated by a 30-60 min incubation at 37° C. with 1/100 vol trypsin (10 mg ml^−1). The trypsin was subsequently inactivated by addition of the serine proteinase inhibitor phenlymethylsulfonylfluoride (PMSF) or the more specific trypsin inhibitor TLCK.
(§1) The enzymatic cleavage of commercially available synthetic internally quenched fluorigenic peptide substrates such as 7-methylcoumarin-4-yl-acetyl-prolyleucyl-glycyl-leucyl-(dinitrophenyl-L-α,β-diaminopropionyl)-alanyl-arginylamide (Mca-Pro-Leu-Gly-Leu-Dap(Dnp)-Ala-Arg-NH2) at the scissile -Gly-Leu-peptide bond separates the fluorescent Mca group from the dinitrophenol quencher, resulting in a strong linear increase in fluorescence intensity that can be readily measured in a fluorimeter (λexitation328 nm, λemission 393 nm) over the first few minutes of the reaction. The specificity of the assay for matrix metalloproteinases is provided by the type I collagen-derived sequence -Pro-Leu-Gly-Leu- in the synthetic substrate, as well as by the incubation conditions. To test the efficacy of the synthetic collagenase/MMP inhibitors, the residual enzymatic activity remaining after an incubation of enzyme plus different amounts of inhibitor is measured at a fixed enzyme and substrate concentration. For each inhibitor, three test series at different fixed substrate concentrations were carried out. From the time-dependent increase in fluorescence intensity measured, the velocity (v) of the enzymatic activity can be calculated as increase in arbitrary fluorescence intensity units per minute. The inhibition constant Ki is calculated graphically by the method of Dixon (1953) by plotting the reciprocal of the reaction velocity 1/v on the ordinate, and the inhibitor concentration on the abscissa. The x-intercept of the linear plot is defined as minus K1 value.
1984 μl assay buffer (100 mM Tris-HCl pH 7,5, 100 mM NaCl, 10 mM CaCl2, 0,05% Brij 35) • 2 μl inhibitor dissolved in DMSO, or DMSO alone as a solvent control • 4 μl enzyme (MMP-2, MMP-9, or the catalytic domain of MMP-8) • 10 μl Mca-Pro-Leu-Gly-Leu-Dap(Dnp)-Ala-Arg-NH2 in DMSO Method • 1. Incubate buffer, enzyme, and inhibitor for 5 min at room temperature, with stirring. • 2. Start the reaction by adding 10 μl substrate in DMSO • 3. Record the increase in fluorescence intensity over 2 min. […]

The target in experiment [2] is T2, human matrix metalloproteinase-2 (MMP-2; gelatinase A) (Homo sapiens, UniProt P08253).
T2 construct: to prepare the enzymatically active mature form of the enzyme; endogenous in cells; host or cells: human dermal fibroblasts (secreted into culture supernatant)
T2 sequence (P08253 110-660): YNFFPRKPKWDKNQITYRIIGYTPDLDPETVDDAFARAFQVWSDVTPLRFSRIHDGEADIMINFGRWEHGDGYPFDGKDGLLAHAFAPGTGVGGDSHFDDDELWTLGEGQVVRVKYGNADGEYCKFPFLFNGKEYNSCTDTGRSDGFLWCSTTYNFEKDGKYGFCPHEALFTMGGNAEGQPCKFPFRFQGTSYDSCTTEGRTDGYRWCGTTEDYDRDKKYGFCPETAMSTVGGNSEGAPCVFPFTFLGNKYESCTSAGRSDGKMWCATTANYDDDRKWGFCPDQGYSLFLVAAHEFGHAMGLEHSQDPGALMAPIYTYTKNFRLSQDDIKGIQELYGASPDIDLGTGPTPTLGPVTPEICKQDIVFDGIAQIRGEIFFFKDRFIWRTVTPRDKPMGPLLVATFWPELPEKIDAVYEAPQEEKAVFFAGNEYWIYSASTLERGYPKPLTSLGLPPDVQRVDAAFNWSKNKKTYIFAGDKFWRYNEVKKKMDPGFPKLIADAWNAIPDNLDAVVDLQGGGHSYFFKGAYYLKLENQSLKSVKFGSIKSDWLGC
The experiment is described as follows: Inhibition of human matrix metalloproteinase-2 (gelatinase A). As to conditions: trypsin-activated MMP-2 from human dermal fibroblast culture supernatant; read-out: MMP-2 (50% inhibition).
Source text: MMP-2 is easily prepared by standard procedures from the culture medium of cultivated human fibroblasts in reasonable quantities, and is therefore readily available. […] A screening system based on the measurement of the proteolytic activity of MMP-2 was developed to analyse the inhibitory effects of the various inhibitors described in Table 1.
To this end, human dermal fibroblasts were obtained and maintained in culture using standard methods. The cell-free culture supernatant containing the secreted pro-MMP-2 was treated with trypsin. The trypsin was inactivated with the specific active-site serine proteinase inhibitor Nα-p-tosyl-L-lysine-chloromethylketone (TLCK), and the active MMP-2 was partially purified by gel filtration on Sepharose 4B. The isolated MMP-2 was identified and characterized by the use of a commercially available immunoassay.
A simple nonradioactive assay was developed to measure MMP-2 activity using gelatin as a substrate that allows both a large number of samples to be analysed in parallel and to generate kinetic data. Partially purified MMP-2 was incubated with a suitable dilution of gelatin under standardized conditions (time, buffer, pH, temperature, inhibitor, additives), and uncleaved gelatin was separated from degradation products by suction filtration through a nitrocellulose filter. High-molecular-weight gelatin is thereby bound to the nitrocellulose filter, and the low-molecular-weight gelatin-derived peptides pass through it. The nitrocellulose-bound gelatin can be stained with Ponceau S or Commassie Brilliant Blue protein stains, and the degree of staining quantified densitometrically using a commercially available electrophoresis gel documentation system supported by dedicated analytical software. The nitrocellulose filtration is conducted using a commercially available dot- or slot-blotting apparatus.
The gelatinase assay described here has been validated by comparison with results obtained with an established collagenase assay using radioactive or fluorescently labeled collagen as substrate.
as §1
1984 μl assay buffer (100 mM Tris-HCl pH 7,5, 100 mM NaCl, 10 mM CaCl2, 0,05% Brij 35) • 2 μl inhibitor dissolved in DMSO, or DMSO alone as a solvent control • 4 μl enzyme (MMP-2, MMP-9, or the catalytic domain of MMP-8) • 10 μl Mca-Pro-Leu-Gly-Leu-Dap(Dnp)-Ala-Arg-NH2 in DMSO Method • 1. […]

The target in experiment [3] is T3, catalytic domain of human matrix metalloproteinase-8 (MMP-8; neutrophil collagenase) (Homo sapiens, UniProt P22894).
T3 construct: express heterologously only the catalytic domain, rather than the entire MMP-8, in Escherichia coli; made in house; host or cells: Escherichia coli
The experiment in a line: Inhibition of catalytic domain of human MMP-8, fluorimetric assay, Dixon plot. To be noted: recombinant catalytic domain, Mca-Pro-Leu-Gly-Leu-Dap(Dnp)-Ala-Arg-NH2 substrate.
Source text: The catalytic domain of MMP-8 was chosen as a further test enzyme because of its high stability and constitutive activity, obviating the need for enzymatic or chemical activation, which is a well-known source of error, e.g. the commonly used organomercurial compounds used to activate pro-MMPs may interfere in subsequent assays or affect the activity of the enzyme, leading to erroneous interpretation of results. The cloning strategy was designed to express heterologously only the catalytic domain, rather than the entire MMP-8, in Escherichia coli. With the so-constructed expressed catalytic domain, we obtained a stable enzymatically active, highly pure enzyme that is well suited for routine investigation of the efficacy of the synthetic inhibitors and provides highly reproducible test results.
The cloning and expression of the recombinant catalytic domain of MMP-8 follows the protocol developed by Schnierer et al. (Schnierer, S., Kleine, T., Gote, T., Hilleman, A., Knäuper, V., and Tschesche, H., 1993, The recombinant catalytic domain of human neutrophil collagenase lacks type I collagen substrate specificity, Biochem. Biophys. Res. Commun. 191, 319-326).
as §1
1984 μl assay buffer (100 mM Tris-HCl pH 7,5, 100 mM NaCl, 10 mM CaCl2, 0,05% Brij 35) • 2 μl inhibitor dissolved in DMSO, or DMSO alone as a solvent control • 4 μl enzyme (MMP-2, MMP-9, or the catalytic domain of MMP-8) • 10 μl Mca-Pro-Leu-Gly-Leu-Dap(Dnp)-Ala-Arg-NH2 in DMSO Method • 1. Incubate buffer, enzyme, and inhibitor for 5 min at room temperature, with stirring. • 2. Start the reaction by adding 10 μl substrate in DMSO • 3. Record the increase in fluorescence intensity over 2 min. Confirmation of the Inhibitory Activity by Protein Zymographic Analysis

For experiment [4], the target named is Clostridium histolyticum collagenase (EC 3.4.24.3). The experiment is described as follows: Inhibition of Clostridium histolyticum collagenase, spectrophotometric FALGPA assay. To be noted: chromogenic substrate FALGPA; read-out: C. histolyticum (50% inhibition). From the text: The activity of Clostidium histolyticum collagenase may be readily determined by a simple spectrophotometric assay using the synthetic chromogenic peptide substrate N-(3-[2-furyl]acryloyi)-leucine-glycine-proline-alanine (FALGPA; Van Hart, H. E. and Steinbrink, D. R. 1981, Anal. Biochem. 113, 356). The degree of inhibition of the degradation of this chromogenic substrate by the addition of the various test substances described in Table 1 may be easily quantified. The enzyme and substrate are commercially available.

T3 sequence (P22894 100-262 limits assumed): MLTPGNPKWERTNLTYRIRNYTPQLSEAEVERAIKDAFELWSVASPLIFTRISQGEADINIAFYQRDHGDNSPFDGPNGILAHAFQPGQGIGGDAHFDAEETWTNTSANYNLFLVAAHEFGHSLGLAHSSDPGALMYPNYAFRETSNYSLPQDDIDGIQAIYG
T1 sequence (P14780 107-707 limits assumed): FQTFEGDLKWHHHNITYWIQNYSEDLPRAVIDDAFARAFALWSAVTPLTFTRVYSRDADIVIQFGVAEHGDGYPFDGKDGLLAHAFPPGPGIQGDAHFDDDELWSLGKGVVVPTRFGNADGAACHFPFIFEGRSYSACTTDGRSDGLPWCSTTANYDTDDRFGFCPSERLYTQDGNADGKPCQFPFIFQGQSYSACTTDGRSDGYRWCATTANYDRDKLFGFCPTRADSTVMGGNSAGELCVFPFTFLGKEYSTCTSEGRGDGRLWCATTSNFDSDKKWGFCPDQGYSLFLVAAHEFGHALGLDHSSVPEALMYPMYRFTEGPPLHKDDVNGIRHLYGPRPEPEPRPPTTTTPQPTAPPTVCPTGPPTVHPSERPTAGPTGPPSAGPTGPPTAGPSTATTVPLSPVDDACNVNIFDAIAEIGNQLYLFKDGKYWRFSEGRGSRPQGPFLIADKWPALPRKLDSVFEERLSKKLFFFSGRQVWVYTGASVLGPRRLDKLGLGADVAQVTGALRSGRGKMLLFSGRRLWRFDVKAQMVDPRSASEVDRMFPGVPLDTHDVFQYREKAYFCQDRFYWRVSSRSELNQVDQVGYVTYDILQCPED

For the compound `Cn1c(=O)c2ccccc2n(CCCSCC(=O)NO)c1=O` [Example 20, N-hydroxy-2-[3-(methyl-2,4-dioxo-3,4-dihydro-2H-chinazolin-1-yl)-propylsulfanyl]acetamide], the IC50 in experiment [1] amounted to 71.4 µM.
In the case of `CC(CS)Cn1c(=O)[nH]c2ccccc2c1=O` (racemic) [Example 19, (R,S)-3-[3-(2-methyl)-mercaptopropyl]chinazolin-2,4(1H,3H)-dione], the IC50 in experiment [2] was 7.1 µM. Moreover, the Ki in experiment [3] turned out to be 3 µM.
As to `CC(C)(S)Cn1c(=O)[nH]c(=O)c2ccccc21` [Example 2, 1-(2-mercapto-2-methylpropyl)-chinazolin-2,4(1H,3H)-dione], in experiment [2], the IC50 stood at 143 µM. Besides, the “MMP-8 (Ki value)” value in experiment [3] is recorded as “negative”.
With `Cn1c(=O)c2ccccc2n(CCS)c1=O` [Example 6, 1-(2-mercaptoethyl)-3-methylchinazolin-2,4(1H,3H)-dione], the IC50 in experiment [4] turned out to be 13.1 µM; in experiment [2], 97.1 µM. Also, in experiment [3], the “MMP-8 (Ki value)” value is on record as “negative”.
Turning to `O=c1[nH]c2ccccc2c(=O)n1CCCCCS` [Example 13, 3-(5-mercaptopent-1-yl)-chinazolin-2,4(1H,3H)-dione], the Ki in experiment [3] was 20 µM.
For the compound `O=c1c2ccccc2n(CCS)c(=O)n1Cc1ccccc1` [Example 11, 3-benzyl-1-(2-mercaptoethyl)-chinazolin-2,4(1H,3H)-dione], the IC50 in experiment [4] was found to be 22.4 µM. Also, in experiment [3], the Ki was determined as 33.3 µM.
For `COc1cc2c(=O)n(C)c(=O)n(CCS)c2cc1OC` [Example 10, 6,7-dimethoxy-1-(2-mercaptoethyl)-3-methyl-chinazolin-2,4(1H,3H)-dione], the IC50 was 31.5 µM in experiment [4] and 6.3 µM in experiment [2].
As for `CCn1c(=O)c2ccccc2n(CCCS)c1=O` [Example 9, 3-ethyl-1-(3-mercaptoprop-1-yl)-chinazolin-2,4(1H,3H)-dione], the results for the IC50 in experiment [1] and in experiment [2] were 43.4 µM and 13.9 µM, respectively.
Take `CCn1c(=O)c2ccccc2n(CCS)c1=O` [Example 8, 3-ethyl-1-(2-mercaptoethyl)-chinazolin-2,4(1H,3H)-dione]: in experiment [4], the IC50 stood at 39.4 µM. Further, the “MMP-8 (Ki value)” value in experiment [3] was “negative”.
On to `CC(S)Cn1c(=O)[nH]c(=O)c2ccccc21` (racemic) [Example 1, (R,S)-1-(2-mercaptopropyl)-chinazolin-2,4(1H,3H)-dione], for which the results for the IC50 in experiment [4] and in experiment [2] were 21 µM and 23.3 µM, respectively. For the same compound, the inhibition constant (Ki) in experiment [3] was determined as 33.3 µM.
